“Also recorded” adds a separate entry of the source. Marks after values point to notes of the source that are not given here.
Assays:
[1] = system: healthy female volunteers; experiment: Phase 1 study: antiemetic effect of oral olanzapine doses following apomorphine challenge on day 8; format: in vivo, human; settings: for Nausea Score 1-120 min.: apomorphine 0.05 mg/kg, scale 1=no nausea, 10=severe nausea
Procedure: Twenty-four healthy female volunteers were enrolled. Four active-treatment groups and a cohort of placebo-treated subjects were evaluated.
Subjects were administered study drug once daily for 8 days. During this period, subjects maintained a study diary of their side effects. The subject diary was used to collect on a daily basis any adverse events including an assessment of the presence and/or intensity of sedation on a numeric scale where 1=no sedation and 10=excessive sedation.
On the 8th day, subjects were administered apomorphine at a dose of 0.05 mg/kg and assessed over 6 hours. During this period, subjects were asked to record episodes of nausea on a numeric scale every 15 minutes for the duration of assessment. The intensity of nausea was captured using a 1-10 rating scale where 1=no nausea and 10=severe nausea. Emesis intensity was also captured where 1=no emesis and 10=severe emesis. Episodes of retching or emesis were collected and measured for the absolute number of retches or vomits during the collection period and documented for the time of the specific event following the administration of the apomorphine.

[2] = clinical; settings: human, plasma, oral
[3] = oral olanzapine 2 mg a day, apomorphine challenge
[4] = oral olanzapine 4 mg a day, apomorphine challenge
[5] = oral olanzapine 6 mg a day, apomorphine challenge
[6] = oral olanzapine 8 mg a day, apomorphine challenge

Cc1cc2c(s1)Nc1ccccc1N=C2N1CCN(C)CC1 [olanzapine, 2-methyl-10-(4-methyl-1-piperazinyl)-4H-thieno-[2,3-b][1,5]benzo-diazepine]
Nausea severity scores during 0-120 min following apomorphine challenge, comparison with placebo ([1]; 2 mg olanzapine steady state dose): not significantly different than placebo
Nausea severity scores during 0-120 min following apomorphine challenge, comparison with placebo ([1]; 4 mg olanzapine steady state dose, p<0.05): significantly different than placebo
Maximum intensity of nausea, comparison between doses ([1]; 4 mg, 6 mg and 8 mg dose, apomorphine challenge): no different
Nausea severity scores during 0-120 min following apomorphine challenge, comparison with placebo ([1]; 6 mg olanzapine steady state dose, p<0.05): significantly different than placebo
Nausea severity scores during 0-120 min following apomorphine challenge, comparison with placebo ([1]; 8 mg olanzapine steady state dose): not different from the placebo control; also recorded: not significantly different than placebo
Nausea Score 1-120 min. ([1]; oral olanzapine 2 mg a day for 8 days): 6**
Nausea Score 1-120 min. (severity in words) [1, 3]: Moderate
Retching (incidence) [1, 3]: 40%
Vomiting (incidence) [1, 3]: 40%
Nausea Score 1-120 min. ([1]; oral olanzapine 4 mg a day for 8 days): 3.4 #
Nausea Score 1-120 min. (severity in words) [1, 4]: Mild
Retching (incidence) [1, 4]: 0%
Vomiting (incidence) [1, 4]: 20%
Nausea Score 1-120 min. ([1]; oral olanzapine 6 mg a day for 8 days): 3.7 #
Nausea Score 1-120 min. (severity in words) [1, 5]: Mild
Retching (incidence) [1, 5]: 0%
Vomiting (incidence) [1, 5]: 0%
Nausea Score 1-120 min. ([1]; oral olanzapine 8 mg a day for 8 days): 5**
Nausea Score 1-120 min. (severity in words) [1, 6]: Mild
Retching (incidence) [1, 6]: 20%
Vomiting (incidence) [1, 6]: 20%
concentration at 1 day ([2]; 4 mg a day): 5 ng/mL
concentration at 1 day ([2]; 6 mg a day): 8 ng/mL
